Measured values as given in patent US7868204B2, “Inhibitors of histone deacetylase” (MethylGene Inc., priority 2001, dated 2011).
Where two headings read alike, the source gives them in different places.

Tests used:
[1] = target: T1, cloned recombinant human HDAC-1 (Homo sapiens, UniProt Q13547); test: Human HDAC-1 enzyme inhibition, Assay 1 ([3H]-acetylated histone substrate, scintillation counting); format: biochemical
T1 construct: made in house; host or cells: Baculovirus insect cell expression system
T1 sequence (Q13547 whole entry): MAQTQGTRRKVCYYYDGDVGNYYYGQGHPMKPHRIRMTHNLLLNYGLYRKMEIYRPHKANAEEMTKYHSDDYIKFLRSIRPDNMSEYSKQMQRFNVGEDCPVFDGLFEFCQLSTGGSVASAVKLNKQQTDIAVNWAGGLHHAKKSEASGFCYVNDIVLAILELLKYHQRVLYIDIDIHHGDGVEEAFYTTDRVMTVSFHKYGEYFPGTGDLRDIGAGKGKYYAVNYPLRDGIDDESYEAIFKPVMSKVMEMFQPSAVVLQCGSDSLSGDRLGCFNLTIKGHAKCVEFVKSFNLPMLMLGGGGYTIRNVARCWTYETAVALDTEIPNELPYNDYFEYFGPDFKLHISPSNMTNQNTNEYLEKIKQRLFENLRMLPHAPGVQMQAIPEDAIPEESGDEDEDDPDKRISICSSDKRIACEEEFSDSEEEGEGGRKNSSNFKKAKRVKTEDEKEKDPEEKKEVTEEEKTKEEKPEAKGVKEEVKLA
Protocol: Assay 1. HDAC inhibitors were screened against a cloned recombinant human HDAC-1 enzyme expressed and purified from a Baculovirus insect cell expression system. […] The mixture was extracted with ethyl acetate and the released [^3H]-acetic acid was quantified by scintillation counting. For inhibition studies, the enzyme was preincubated with compounds at 4° C. for 30 minutes prior to initiation of the enzymatic assay. IC50 values for HDAC enzyme inhibitors were determined by performing dose response curves with individual compounds and determining the concentration of inhibitor producing fifty percent of the maximal inhibition.

[2] = test system: HCT116 cells; test: MTT assay; format: cell-based; settings: Homo sapiens, HCT116 cells, 72 hours
Protocol: HCT116 cells (2000/well) were plated into 96-well tissue culture plates one day before compound treatment. Compounds at various concentrations were added to the cells. The cells were incubated for 72 hours at 37° C. in 5% CO2 incubator. MTT (3-[4,5-dimethylthiazol-2-yl]-2,5 diphenyl tetrazolium bromide, Sigma) was added at a final concentration of 0.5 mg/ml and incubated with the cells for 4 hours before one volume of solubilization buffer (50% N,N-dimethylformamide, 20% SDS, pH 4.7) was added onto the cultured cells. […] OD values were converted to cell numbers according to a standard growth curve of the relevant cell line.

[3] = Table 5d, read-out: HDAC-1 IC50
[4] = Table 5c, read-out: Human HDAC-1 IC50
[5] = Table 5F, read-out: Human HDAC-1 IC50

Nc1ccccc1NC(=O)/C=C/c1ccc(NCCNc2nccs2)nc1 [Cpd 522, N-(2-Amino-phenyl)-3-{6-[2-(thiazol-2-ylamino)-ethylamino]-pyridin-3-yl}-acrylamide]
IC50 [1, 3]: 17 µM
IC50 ([2]; HCT-116, Table 5d): 30 µM

COc1ccc(CNc2ccc(/C=C(\C)C(=O)Nc3ccccc3N)cn2)cc1 [Cpd 61b, N-(2-aminophenyl)-3-[6-(4-methoxy-benzylamino)-pyridin-3-yl]-2-methyl-acrylamide]
IC50 [1, 4]: 7 µM
IC50 ([2]; HCT-116, 72 h, Table 5c): 12 µM

Nc1ccccc1NC(=O)/C=C/c1ccc(CNc2cccc(CO)c2)cc1 [Cpd 530, N-(2-Amino-phenyl)-3-{4-[(3-hydroxymethyl-phenylamino)-methyl]-phenyl}-acrylamide]
IC50 [1, 3]: 8 µM
IC50 ([2]; HCT-116, Table 5d): 9 µM

COc1ccc2nc(NCc3ccc(/C=C/C(=O)Nc4ccccc4N)cc3)sc2c1 [Cpd 502]
IC50 [1, 3]: 3 µM
IC50 ([2]; HCT-116, Table 5d): > 25 µM

Nc1ccccc1NC(=O)c1ccc(NC(=O)C(F)(F)F)cc1 [Cpd 431, N-(2-Aminophenyl)-4-(2,2,2-trifluoro-acetylamino)-benzamide]
IC50 [1, 5]: 5 µM
IC50 ([2]; HCT-116, 72 h, Table 5F): 5 µM

Nc1ccccc1NC(=O)c1ccc(C#Cc2ccccc2)cc1 [Cpd 196]
IC50 [1, 5]: 4 µM
IC50 ([2]; HCT-116, 72 h, Table 5F): 3 µM

Nc1ccccc1NC(=O)c1ccc(-c2noc(CN3CCOCC3)n2)cc1 [Cpd 355, N-(2-Amino-phenyl)-4-(5-morpholin-4-ylmethyl-[1,2,4]oxadiazol-3-yl)-benzamide]
IC50 [1, 5]: 25 µM
IC50 ([2]; HCT-116, 72 h, Table 5F): 10 µM

Nc1ccccc1NC(=O)/C=C/c1ccc(CNc2ccc3c(c2)OCO3)cc1 [Cpd 505, N-(2-Amino-phenyl)-3-[4-(benzo[1,3]dioxol-5-ylaminomethyl)-phenyl]-acrylamide]
IC50 [1, 3]: 3 µM
IC50 ([2]; HCT-116, Table 5d): 6 µM

Nc1ccccc1NC(=O)/C=C/c1ccc(CNc2cccc3ccccc23)cc1 [Cpd 558, N-(2-Amino-phenyl)-3-[4-(naphthalen-1-ylaminomethyl)-phenyl]-acrylamide]
IC50 [1, 3]: 7 µM
IC50 ([2]; HCT-116, Table 5d): 10 µM

Nc1ccccc1NC(=O)/C=C/c1ccc(CSc2ccc3ccccc3n2)cc1 [Cpd 110, N-(2-Amino-phenyl)-3-[4-(quinolin-2-ylsulfanylmethyl)-phenyl]-acrylamide]
IC50 [1, 4]: 3 µM

COc1cc(C2C=CC(c3ccc(C(=O)Nc4ccccc4N)cc3)O2)cc(OC)c1OC (centres unmarked) [compound 289, N-(2-Amino-phenyl)-4-[5-(3,4,5-trimethoxy-phenyl)-2,5-dihydro-furan-2-yl]-benzamide]
IC50 [1, 5]: 17 µM
IC50 ([2]; HCT-116, 72 h, Table 5F): 5 µM

COc1cc(CNCc2ccc(/C=C/C(=O)Nc3ccccc3N)cc2)cc(OC)c1OC [Cpd 59, N-(2-aminophenyl)-3-{4-[(3,4,5-trimethoxy-benzylamino)-methyl]-phenyl}-acrylamide]
IC50 [1, 4]: 12 µM
IC50 ([2]; HCT-116, 72 h, Table 5c): 22 µM

Nc1ccccc1NC(=O)/C=C/c1ccc(CNc2nccc(C(F)(F)F)n2)cc1 [Cpd 529]
IC50 [1, 3]: 5 µM
IC50 ([2]; HCT-116, Table 5d): 17 µM

Nc1ccccc1NC(=O)c1ccc(CNc2nc(N3CCCCC3)nc(N3CCCCC3)n2)cc1 [Cpd 26, N-(2-Amino-phenyl)-4-[(4,6-di-piperidin-1-yl-[1,3,5]triazin-2-ylamino)-methyl]-benzamide]
IC50 ([1]; Table 5a, read-out: Human HDAC-1 IC50): 0.5 µM
IC50 ([2]; HCT-116, 72 h, Table 5a): 2 µM

Nc1ccccc1NC(=O)/C=C/c1ccc(NCc2cccnc2)cc1 [Cpd 111, N-(2-amino-phenyl)-3-{4-[(pyridin-3-ylmethyl)-amino]-phenyl}-acrylamide]
IC50 [1, 4]: 10 µM
IC50 ([2]; HCT-116, 72 h, Table 5c): 2 µM

Nc1ccccc1NC(=O)c1ccc(-c2noc(-c3ccccc3)n2)cc1 [Cpd 352, N-(2-Amino-phenyl)-4-(5-phenyl-[1,2,4]oxadiazol-3-yl)-benzamide]
IC50 [1, 5]: 16 µM
IC50 ([2]; HCT-116, 72 h, Table 5F): 9 µM

Nc1ccccc1NC(=O)/C=C/c1ccc(CNc2ccc(Cc3nnn[nH]3)cc2)cc1 [Cpd 544, N-(2-Amino-phenyl)-3-(4-{[4-(1H-tetrazol-5-ylmethyl)-phenylamino]-methyl}-phenyl)-acrylamide]
IC50 [1, 3]: 17 µM
IC50 ([2]; HCT-116, Table 5d): 45 µM

Nc1ccccc1NC(=O)/C=C/c1ccc(NCc2cccc(OC(F)(F)F)c2)cc1 [Cpd 496, N-(2-Amino-phenyl)-3-[4-(3-trifluoromethoxy-benzylamino)-phenyl]-acrylamide]
IC50 [1, 3]: 8 µM
IC50 ([2]; HCT-116, Table 5d): 13 µM

Nc1ccccc1NC(=O)/C=C/c1ccc(CNc2ccc([N+](=O)[O-])cc2)cc1 [Cpd 550, N-(2-Amino-phenyl)-3-{4-[(4-nitro-phenylamino)-methyl]-phenyl}-acrylamide]
IC50 [1, 3]: 4 µM
IC50 ([2]; HCT-116, Table 5d): 15 µM

COc1cc(NCc2ccc(C(=O)Nc3ccccc3N)cn2)cc(OC)c1OC [Cpd 445, N-(2-Amino-phenyl)-6-[(3,4,5-trimethoxy-phenylamino)-methyl]-nicotinamide]
IC50 [1, 5]: 16 µM
IC50 ([2]; HCT-116, 72 h, Table 5F): 6 µM

COc1cc2c(cc1OC)CN(c1ccc(/C=C/C(=O)Nc3ccccc3N)cc1)CC2 [Cpd 498, N-(2-Amino-phenyl)-3-[4-(6,7-dimethoxy-3,4-dihydro-1H-isoquinolin-2-yl)-phenyl]-acrylamide]
IC50 [1, 3]: > 25 µM

CN1CCN(c2ccc(NCc3ccc(/C=C/C(=O)Nc4ccccc4N)cc3)cc2F)CC1 [Cpd 527, N-(2-Amino-phenyl)-3-(4-{[3-fluoro-4-(4-methyl-piperazin-1-yl)-phenylamino]-methyl}-phenyl)-acrylamide]
IC50 [1, 3]: 4 µM
IC50 ([2]; HCT-116, Table 5d): 3 µM

Nc1ccccc1NC(=O)/C=C/c1ccc(CNc2cccc(OCCO)c2)cc1 [Cpd 549, N-(2-Amino-phenyl)-3-(4-{[3-(2-hydroxy-ethoxy)-phenylamino]-methyl}-phenyl)-acrylamide]
IC50 [1, 3]: 4 µM
IC50 ([2]; HCT-116, Table 5d): 19 µM

Nc1ccccc1NC(=O)c1ccc(C#CC(c2ccc(Cl)cc2)N2CCOCC2)cc1 (centres unmarked) [Cpd 201]
IC50 [1, 5]: 11 µM
IC50 ([2]; HCT-116, 72 h, Table 5F): 5 µM

Nc1ccccc1NC(=O)/C=C/c1ccc(CNc2ccc(OC(F)(F)F)cc2)cc1 [Cpd 504, N-(2-Amino-phenyl)-3-{4-[(4-trifluoromethoxy-phenylamino)-methyl]-phenyl}-acrylamide]
IC50 [1, 3]: 5 µM
IC50 ([2]; HCT-116, Table 5d): > 25 µM

CC(=O)c1cc2c(cc1NCc1ccc(/C=C/C(=O)Nc3ccccc3N)cc1)OCO2 [Cpd 501, 3-{4-[(6-Acetyl-benzo[1,3]dioxol-5-ylamino)-methyl]-phenyl}-N-(2-amino-phenyl)-acrylamide]
IC50 [1, 3]: 4 µM
IC50 ([2]; HCT-116, Table 5d): 10 µM

Nc1ccccc1NC(=O)c1ccc(NCCn2cnc3ccccc3c2=O)nc1 [Cpd 446, N-(2-Amino-phenyl)-6-[2-(4-oxo-4H-quinazolin-3-yl)-ethylamino]-nicotinamide]
IC50 [1, 5]: 21 µM
IC50 ([2]; HCT-116, 72 h, Table 5F): 7 µM

COc1ccc(CNc2ncc(/C=C/C(=O)Nc3ccccc3N)cn2)cc1 [Cpd 118, N-(2-amino-phenyl)-3-[2(4-methoxy-benzylamino)-pyrimidin-5-yl]-acrylamide]
IC50 [1, 4]: 11 µM
IC50 ([2]; HCT-116, 72 h, Table 5c): 8 µM

Cc1nc(NCCc2ccccc2)nc(NCc2ccc(C(=O)Nc3ccccc3N)cc2)n1 [Cpd 483, N-(2-amino-phenyl)-4-[(6-methyl-4-phenethylamino-[1,3,5]triazin-2-yl-amino)-methyl]-benzamide]
IC50 ([1]; Table 5b, read-out: Human HDAC-1 IC50): 4 µM

COc1ccccc1NCc1ccc(/C=C/C(=O)Nc2ccccc2N)cc1 [Cpd 508, N-(2-Amino-phenyl)-3-{4-[(2-methoxy-phenylamino)-methyl]-phenyl}-acrylamide]
IC50 ([2]; HCT-116, Table 5d): 11 µM

COc1ccc(NCc2ccc(C(=O)Nc3cc(C(F)(F)F)ccc3N)cc2)cc1OC [Cpd 453, N-(2-Amino-5-trifluoromethyl-phenyl)-4-[(3,4-dimethoxy-phenylamino)-methyl]-benzamide]
IC50 ([2]; HCT-116, 72 h, Table 5F): 37 µM

COc1cccc(NCc2ccc(/C=C/C(=O)Nc3ccccc3N)cc2)c1 [Cpd 507, N-(2-Amino-phenyl)-3-{4-[(3-methoxy-phenylamino)-methyl]-phenyl}-acrylamide]
IC50 ([2]; HCT-116, Table 5d): 10 µM

COc1cc(-c2ccc3sc(NCc4ccc(C(=O)Nc5ccccc5N)cc4)nc3c2)cc(OC)c1OC [Cpd 194]
IC50 [1, 5]: 3 µM

Nc1ccccc1NC(=O)/C=C/c1ccc(CNc2ccccc2)cc1 [Cpd 509, N-(2-Amino-phenyl)-3-(4-phenylaminomethyl-phenyl)-acrylamide]
IC50 ([2]; HCT-116, Table 5d): 11 µM

Nc1ccccc1NC(=O)c1ccc(-c2ccc(CNC3Cc4ccccc4C3)s2)cc1 [Cpd 465]
IC50 [1, 5]: 2 µM

COc1ccc(CNc2ccc(/C=C/C(=O)Nc3ccccc3N)cc2)cc1 [Cpd 65, N-(2-aminophenyl)-3-{4-(4-methoxy-benzylamino)-phenyl}-acrylamide]
IC50 ([2]; HCT-116, 72 h, Table 5c): 37 µM

COc1ccc(CNc2ccc3cc(/C=C/C(=O)Nc4ccccc4N)ccc3n2)cc1 [Cpd 88, N-(2-aminophenyl)-3-[2-(4-methoxy-benzylamino)-quinolin-6-yl]-acrylamide]
IC50 ([2]; HCT-116, 72 h, Table 5c): > 39 µM

Nc1ccccc1NC(=O)/C=C/c1ccc2c(c1)-c1ccccc1C2 [Cpd 519]
IC50 ([2]; HCT-116, Table 5d): 6 µM

COc1ccc(NCc2ccc(/C=C/C(=O)Nc3ccccc3N)cc2)cc1 [Cpd 541, N-(2-Amino-phenyl)-3-{4-[(4-methoxy-phenylamino)-methyl]-phenyl}-acrylamide]
IC50 ([2]; HCT-116, Table 5d): 12 µM
